# Results from patent US20230099344A1, “COMPOUNDS AND METHODS FOR THE TARGETED DEGRADATION OF IRAK-4” (Arvinas Operations, Inc., priority 2021, published 2023).
# Target: T1, IRAK-4 (Homo sapiens, UniProt Q9NWZ3)
# T1 sequence (Q9NWZ3 1-460): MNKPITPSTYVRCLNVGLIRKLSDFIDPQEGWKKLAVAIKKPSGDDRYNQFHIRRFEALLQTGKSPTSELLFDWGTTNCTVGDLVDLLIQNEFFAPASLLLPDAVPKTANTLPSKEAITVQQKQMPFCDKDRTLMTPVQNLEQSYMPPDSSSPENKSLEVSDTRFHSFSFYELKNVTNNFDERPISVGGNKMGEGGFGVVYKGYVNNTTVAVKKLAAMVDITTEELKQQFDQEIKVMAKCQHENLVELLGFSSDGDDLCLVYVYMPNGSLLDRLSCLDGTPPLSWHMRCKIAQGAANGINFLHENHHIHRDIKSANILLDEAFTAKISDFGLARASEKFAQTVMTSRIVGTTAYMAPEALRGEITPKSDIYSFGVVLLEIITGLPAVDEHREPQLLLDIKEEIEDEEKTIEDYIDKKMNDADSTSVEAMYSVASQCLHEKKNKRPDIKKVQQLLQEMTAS
# Assay: IRAK-4 ELISA, PBMC degradation
# Format: cell-based
# Parameters: endogenous in cells; host or cells: PBMC
# Conditions: treated overnight
# Experimental: Reagents: Human IRAK-4 Matched Antibody Pair Kit (Abcam ab218182) and ELISA Accessory Pack (Abcam ab210905).
# Cell Treatment and Lysis:
# 1. OCI-Ly10: 200,000 cells are seeded at 1×10^6/ml in 96-well U-bottom plates 200 ul per well, treated with compound the same day. Incubate overnight. 2. PBMC: 800,000 cells are seeded at 2×10^6/ml in 96-well U-bottom deep-well plates, 400 ul per well, treated with compound the same day. Incubate overnight.
# Cell lysate is collected and analyzed by ELISA for IRAK-4 levels.
SMILES,DC50 [nM],Dmax [%],PBMC DC90,PBMC Dmax
CC(C)Oc1cc2nn(C3CCN(CC4(F)CN(c5cc6c(cc5F)C(=O)N(C5CCC(=O)NC5=O)C6=O)C4)CC3)cc2cc1NC(=O)c1cnn2cccnc12 (stereo not drawn) [Example 189],< 1,≥ 90,A (A represents a DC90 value <10.0 nM),
CC(C)Oc1cc2nn(C3CCN(CC4(F)CN(c5ccc6c(c5)C(=O)N(C5CCC(=O)NC5=O)C6=O)C4)CC3)cc2cc1NC(=O)c1cnn2ccc(N3CCOCC3)nc12 (stereo not drawn) [Example 190],≥ 10,≥ 90,D (D represents a DC90 value ≥50 nM),
CC(C)Oc1cc2nn(C3CCN(CC4(F)CN(c5ccc6c(c5)C(=O)N(C5CCC(=O)NC5=O)C6=O)C4)CC3)cc2cc1NC(=O)c1cnn2ccc(N3C[C@H]4C[C@@H]3CO4)nc12 (stereo partly drawn) [Example 191],5 to 10,80 to 90,D (D represents a DC90 value ≥50 nM),
CC(C)Oc1cc2nn(C3CCN(CC4(C)CN(c5ccc6c(c5)C(=O)N(C5CCC(=O)NC5=O)C6=O)C4)CC3)cc2cc1NC(=O)c1cnn2cccnc12 (stereo not drawn) [Example 192],1 to 5,80 to 90,A (A represents a DC90 value <10.0 nM),
CC(C)Oc1cc2nn(C3CN(CC4(F)CCN(c5ccc6c(c5)C(=O)N(C5CCC(=O)NC5=O)C6=O)CC4)C3)cc2cc1NC(=O)c1cnn2cccnc12 (stereo not drawn) [Example 194],1 to 5,≥ 90,C (C represents a DC90 value ≥25.0 nM and <50 nM),
CCOc1cc2nn(C3CCN(CC4(F)CN(c5ccc6c(c5)C(=O)N(C5CCC(=O)NC5=O)C6=O)C4)CC3)cc2cc1NC(=O)c1cnn2cccnc12 (stereo not drawn) [Example 195],1 to 5,≥ 90,B (B represents a DC90 value ≥10.0 nM and <25.0 nM),
O=C1CCC(N2C(=O)c3ccc(N4CC(F)(CN5CCC(n6cc7cc(NC(=O)c8cnn9cccnc89)c(OC8CCC8)cc7n6)CC5)C4)cc3C2=O)C(=O)N1 (stereo not drawn) [Example 196],1 to 5,80 to 90,B (B represents a DC90 value ≥10.0 nM and <25.0 nM),
O=C1CCC(N2C(=O)c3ccc(N4CC(CN5CCC(n6cc7cc(NC(=O)c8cnn9cccnc89)c(OC8CCC8)cc7n6)CC5)C4)cc3C2=O)C(=O)N1 (stereo not drawn) [Example 197],< 1,80 to 90,A (A represents a DC90 value <10.0 nM),
O=C1CCC(N2C(=O)c3ccc(N4CC(F)(CN5CCC(n6cc7cc(NC(=O)c8cnn9cccnc89)c(OC8CCCC8)cc7n6)CC5)C4)cc3C2=O)C(=O)N1 (stereo not drawn) [Example 198],5 to 10,≥ 90,B (B represents a DC90 value ≥10.0 nM and <25.0 nM),
O=C1CCC(N2C(=O)c3ccc(N4CC(F)(CN5CCC(n6cc7cc(NC(=O)c8cnn9cccnc89)c(C8CC8)cc7n6)CC5)C4)cc3C2=O)C(=O)N1 (stereo not drawn) [Example 199],1 to 5,≥ 90,B (B represents a DC90 value ≥10.0 nM and <25.0 nM),
O=C1CCC(N2C(=O)c3ccc(N4CC(F)(CN5CCC(n6cc7cc(NC(=O)c8cnn9cccnc89)c(OC8CC8)cc7n6)CC5)C4)cc3C2=O)C(=O)N1 (stereo not drawn) [Example 200],1 to 5,≥ 90,A (A represents a DC90 value <10.0 nM),
O=C1CCC(N2Cc3cc(N4CC(F)(CN5CCC(n6cc7cc(NC(=O)c8cnn9cccnc89)c(OC8CCC8)cc7n6)CC5)C4)ccc3C2=O)C(=O)N1 (stereo not drawn) [Example 214],< 1,70 to 80,A (A represents a DC90 value <10.0 nM),
O=C1CCC(N2C(=O)c3ccc(N4CC(F)(CN5CCC(N6Cc7cc(NC(=O)c8cnn9cccnc89)c(OC8CCC8)cc7C6=O)CC5)C4)cc3C2=O)C(=O)N1 (stereo not drawn) [Example 215],1 to 5,70 to 80,A (A represents a DC90 value <10.0 nM),
O=C1CCC(N2Cc3cc(N4CC(F)(CN5CCC(n6cc7cc(NC(=O)c8cnn9cccnc89)c(OC8CCC8)cc7n6)CC5)C4)ccc3C2=O)C(=O)N1 (stereo not drawn) [Example 216],< 1,,A (A represents a DC90 value <10.0 nM),B (B represents a Dmax value ≥80 and <90)
COc1cc(N2CC(F)(CN3CCC(n4cc5cc(NC(=O)c6cnn7cccnc67)c(OC(C)C)cc5n4)CC3)C2)cc2c1C(=O)N(C1CCC(=O)NC1=O)C2=O (stereo not drawn) [Example 217],< 1,80 to 90,A (A represents a DC90 value <10.0 nM),
CC(C)Oc1nc2nn(C3CCN(CC4(F)CN(c5ccc6c(c5)C(=O)N(C5CCC(=O)NC5=O)C6=O)C4)CC3)cc2cc1NC(=O)c1cnn2cccnc12 (stereo not drawn) [Example 219],5 to 10,80 to 90,C (C represents a DC90 value ≥25.0 nM and <50 nM),

SMILES,DC50 [nM],Dmax [%],PBMC DC90,PBMC Dmax
CC(C)(C)Oc1nc2nn(C3CCN(CC4(F)CN(c5ccc6c(c5)C(=O)N(C5CCC(=O)NC5=O)C6=O)C4)CC3)cc2cc1NC(=O)c1cnn2cccnc12 (stereo not drawn) [Example 220],1 to 5,80 to 90,C (C represents a DC90 value ≥25.0 nM and <50 nM),
O=C1CCC(N2C(=O)c3cc(F)c(N4CC(CN5CCC(n6cc7cc(NC(=O)c8cnn9cccnc89)c(OCC8CC8)cc7n6)CC5)C4)cc3C2=O)C(=O)N1 (stereo not drawn) [Example 221],1 to 5,< 70,B (B represents a DC90 value ≥10.0 nM and <25.0 nM),
C[C@@H](Oc1cc2nn(C3CCN(CC4(F)CN(c5ccc6c(c5)C(=O)N(C5CCC(=O)NC5=O)C6=O)C4)CC3)cc2cc1NC(=O)c1cnn2cccnc12)C1CC1 (stereo partly drawn) [Example 223],1 to 5,70 to 80,C (C represents a DC90 value ≥25.0 nM and <50 nM),
O=C1CCC(N2C(=O)c3ccc(N4CC[C@H](N5CCC(n6cc7cc(NC(=O)c8cnn9cccnc89)c(OCC8CC8)cc7n6)CC5)C4)cc3C2=O)C(=O)N1 (stereo partly drawn) [Example 225],1 to 5,80 to 90,B (B represents a DC90 value ≥10.0 nM and <25.0 nM),
O=C1CCC(N2C(=O)c3ccc(N4CC5(CCC(N6CCC(n7cc8cc(NC(=O)c9cnn%10cccnc9%10)c(OCC9CC9)cc8n7)CC6)CC5)C4)cc3C2=O)C(=O)N1 (stereo not drawn) [Example 227],1 to 5,80 to 90,A (A represents a DC90 value <10.0 nM),
CC1(N2CCC(n3cc4cc(NC(=O)c5cnn6cccnc56)c(OCC5CC5)cc4n3)CC2)CN(c2ccc3c(c2)C(=O)N(C2CCC(=O)NC2=O)C3=O)C1 (stereo not drawn) [Example 228],1 to 5,80 to 90,C (C represents a DC90 value ≥25.0 nM and <50 nM),
O=C1CCC(N2C(=O)c3cc(F)c(N4CC(F)(CN5CCC(n6cc7cc(NC(=O)c8cnn9cccnc89)c(OCC8CC8)cc7n6)CC5)C4)cc3C2=O)C(=O)N1 (stereo not drawn) [Example 229],5 to 10,80 to 90,B (B represents a DC90 value ≥10.0 nM and <25.0 nM),
CC(C)(C1CCN(c2ccc3c(c2)C(=O)N(C2CCC(=O)NC2=O)C3=O)CC1)N1CCC(n2cc3cc(NC(=O)c4cnn5cccnc45)c(OCC4CC4)cc3n2)CC1 (stereo not drawn) [Example 230],1 to 5,≥ 90,D (D represents a DC90 value ≥50 nM),
O=C1CCC(N2C(=O)c3ccc(N4CC(F)(CN5CCC(n6cc7cc(NC(=O)c8cnn9cccnc89)c(OCC(F)F)cc7n6)CC5)C4)cc3C2=O)C(=O)N1 (stereo not drawn) [Example 232],1 to 5,,C (C represents a DC90 value ≥25.0 nM and <50 nM),B (B represents a Dmax value ≥80 and <90)
O=C1CCC(N2C(=O)c3ccc(N4CC(F)(CN5CCC(n6cc7cc(NC(=O)c8cnn9ccc(N%10CCOCC%10)nc89)c(OCC8CC8)cc7n6)CC5)C4)cc3C2=O)C(=O)N1 (stereo not drawn) [Example 233],5 to 10,80 to 90,C (C represents a DC90 value ≥25.0 nM and <50 nM),
COC1(CN2CCC(n3cc4cc(NC(=O)c5cnn6cccnc56)c(OCC5CC5)cc4n3)CC2)CN(c2ccc3c(c2)C(=O)N(C2CCC(=O)NC2=O)C3=O)C1 (stereo not drawn) [Example 234],< 1,80 to 90,A (A represents a DC90 value <10.0 nM),
O=C1CCC(N2C(=O)c3ccc(N4CC(CN5CCC(n6cc7cc(NC(=O)c8cnn9cccnc89)c(OCC(F)F)cc7n6)CC5)C4)cc3C2=O)C(=O)N1 (stereo not drawn) [Example 235],< 1,≥ 90,A (A represents a DC90 value <10.0 nM),
COc1cc2nn(C3CCN(CC4(F)CN(c5ccc6c(c5)C(=O)N(C5CCC(=O)NC5=O)C6=O)C4)CC3)cc2cc1NC(=O)c1cnn2ccc(N3CCOCC3)nc12 (stereo not drawn) [Example 236],< 1,70 to 80,A (A represents a DC90 value <10.0 nM),
CNc1ccn2ncc(C(=O)Nc3cc4cn(C5CCN(CC6(F)CN(c7ccc8c(c7)C(=O)N(C7CCC(=O)NC7=O)C8=O)C6)CC5)nc4cc3OCC3CC3)c2n1 (stereo not drawn) [Example 237],1 to 5,70 to 80,D (D represents a DC90 value ≥50 nM),
COc1cc2nn(C3CCN(CC4(F)CN(c5ccc6c(c5)C(=O)N(C5CCC(=O)NC5=O)C6=O)C4)CC3)cc2cc1NC(=O)c1cnn2ccc(C3C[C@H]4C[C@@H]3CO4)nc12 (stereo partly drawn) [Example 238],1 to 5,70 to 80,B (B represents a DC90 value ≥10.0 nM and <25.0 nM),
